Measurements from article PMC10135569, “Does Enhanced Structural Maturity of hiPSC-Cardiomyocytes Better for the Detection of Drug-Induced Cardiotoxicity?” (Biomolecules, 2023).
Entries after “also recorded” stand apart in the source; their conditions may differ. Where two headings read alike, the source gives them in different places.

Experiments:
[1] = system: hiPSC-CMs (iCell2 Cardiomyocytes) 2D monolayers; experiment: Membrane potential (action potential) recordings with FluoVolt voltage-sensitive dye on the CellOPTIQ platform; assay type: cell-based, human; details: for effect on APD90: positive control
Description: (§1) Cardiomyocytes (FUJIFILM Cellular Dynamics, Madison, WI, USA) were kept at −190 °C and prepared for culture as per the manufacturer’s instructions.
(§2) Standard fibronectin vs. Matrix Plus well coating: The cells were cultured using two different coatings in a humidified incubator at 37 °C with 5% CO2. First, 96-well glass-bottomed plates (MatTek, Ashland, MA) were coated with fibronectin ([…] in PBS supplemented with Ca^2+ and Mg^2+; Sigma, St. Louis, MO, USA) (defining FM). Second, CELLvo^TM Matrix Plus (StemBioSys, San Antonio, TX, USA), which were pre-coated on 96 well glass bottom plates and kept at 4 °C. On the day of plating, CELLvo^TM Matrix Plus plates were transferred to room temperature, rehydrated with phosphate buffer saline (PBS), incubated for 1 h at 37 °C, and washed 2× with PBS. Cells were introduced at a density of 50,000 cells/well to allow the formation of a confluent monolayer in each well (defined as MM). The maintenance protocols followed the manufacturer’s instructions and used the iCell^2 Cardiomyocytes Maintenance media for media changes every 2 days. Experiments were performed between days 5 and 6, as recommended by the manufacturers. Before beginning an experiment, cells were washed in serum-free media (SF media) (Fluorobrite DMEM, Gibco, Thermo Fisher Scientific, Horsham, UK).
(§3) The drug powders were dissolved in DMSO, and four stock concentrations at 1000× the final target concentration were prepared in DMSO. For the experiment, an intermediate concentration 2× the target solution was prepared in SF media. The addition of drugs to the cells was accomplished by replacing 50% of the well volume with the intermediate 2× solution. The same procedure was done for vehicle control using DMSO. The experimental number n = 8/concentration/testing compound in the FM or MM condition, and n = 36 for each positive or negative control in the FM or MM condition.
Cultures of hiPSC-CMs (5–6 days post-plating) were treated with FluoVolt dye (1:1000, Invitrogen, Cat# F10488) in SF media and incubated for 20 min at 37 °C with 5% CO2 and 80% humidity. Multi-well plates were placed in the environmentally controlled stage incubator (37 °C, 5% CO2, water-saturated air atmosphere) (Okolab Inc. Burlingame, CA) of the CellOPTIQ® platform (Clyde Biosciences Ltd., Glasgow, Scotland). The FluoVolt signal was recorded from a 0.2 mm × 0.2 mm area using a 40× (numerical aperture: NA 0.6) Excitation wavelength was 470 ± 10 nm using a light-emitting diode (LED), and emitted light was collected by two photomultipliers (PMTs) at 510–560 nm (channel 1) and 590–650 nm (channel 2), respectively. LED, PMT, and associated power supplies and amplifiers were supplied by Cairn Research Ltd. (Kent, UK) and digitized at 10 kHz and stored on a computer hard drive. In the case of FluoVolt-based action potential recordings, the short wavelength (channel 1, […]) was analyzed for action potential features.
(§4) The dye FluoVolt is loaded into the surface membrane (outer leaflet), and the dye remains within the membrane for many dots, allowing intermittent voltage measurements over the experimental period. In this study, measurements were restricted to within 30 mins of application of the drug. The measurements were made on the same area before/after drug/DMSO addition. […] Baseline spontaneous electrical activity and the associated contractility signal were recorded by capturing 10 s segments of fluorescent signal and video for 2D plates and 15 s for organoids from each well prior to compound addition. Drugs were tested at four concentrations in n = 8 independent replicates (i.e., 8 wells from a single plating) at each concentration. A vehicle control was included for each drug. A 10 s or 15 s recording was then taken 30 min after exposure to the drug or vehicle with only one concentration applied/well.

[2] = system: hiPSC-CMs (iCell2 Cardiomyocytes) 2D monolayers; experiment: Contractility measurements using video imaging (ContractilityTool / MUSCLEMOTION); assay type: cell-based, human
Description: as §1, §2, §3
as §4, with “applied/well. Offline analysis was performed using proprietary software (CellOPTIQ®).” for “applied/well.”
Short periods (10 s or 15 s) of video were analyzed using the ContractilityTool application (developed by F.L. Burton), which is an implementation of the MUSCLEMOTION algorithm.

[3] = listed in Supplementary Table S1; no reference given; cited from earlier work
[4] = range of concentrations, negative control, FM and MM
[5] = FM monolayer, 0.01 µM, 30 min, delta over DMSO 0.1%
[6] = FM monolayer, 0.1 µM, 30 min, delta over DMSO 0.1%
[7] = FM monolayer, 0.3 µM, 30 min, delta over DMSO 0.1%
[8] = FM monolayer, 1 µM, 30 min, delta over DMSO 0.1%
[9] = MM monolayer, 0.01 µM, 30 min, delta over DMSO 0.1%
[10] = MM monolayer, 0.1 µM, 30 min, delta over DMSO 0.1%
[11] = MM monolayer, 0.3 µM, 30 min, delta over DMSO 0.1%
[12] = MM monolayer, 1 µM, 30 min, delta over DMSO 0.1%

Compound: O=C(O)COCCN1CCN(C(c2ccccc2)c2ccc(Cl)cc2)CC1 (centres unmarked) [Cetirizine]
- activity at 0.1 µM ([1]; Homo sapiens, Cardiomyocyte, 0.5 h, FM monolayer, 0.1 µM, 30 min, delta over DMSO 0.1%, read-out: Trise (%DD)): 154 ± 32.6%
- activity at 0.3 µM ([1]; Homo sapiens, Cardiomyocyte, 0.5 h, FM monolayer, 0.3 µM, 30 min, delta over DMSO 0.1%, read-out: Trise (%DD)): 127 ± 16.8%
- activity at 3 µM ([1]; Homo sapiens, Cardiomyocyte, 0.5 h, FM monolayer, 3 µM, 30 min, delta over DMSO 0.1%, read-out: Trise (%DD)): 122 ± 8.8%
- activity at 0.1 µM ([1]; Homo sapiens, Cardiomyocyte, 0.5 h, MM monolayer, 0.1 µM, 30 min, delta over DMSO 0.1%, read-out: Trise (%DD)): 146 ± 16.9%
- change in the voltage parameters [1, 4]: No change
- activity at 0.1 µM ([2]; Homo sapiens, Cardiomyocyte, 0.5 h, FM monolayer, 0.1 µM, 30 min, delta over DMSO 0.1%, read-out: CtAmp (%DD)): 72 ± 13.3%
- activity at 0.3 µM ([2]; Homo sapiens, Cardiomyocyte, 0.5 h, FM monolayer, 0.3 µM, 30 min, delta over DMSO 0.1%, read-out: CtAmp (%DD)): 87 ± 14.6%
- activity at 1 µM ([2]; Homo sapiens, Cardiomyocyte, 0.5 h, FM monolayer, 1 µM, 30 min, delta over DMSO 0.1%, read-out: CtAmp (%DD)): 129 ± 32.9%
- activity at 1 µM ([2]; Homo sapiens, Cardiomyocyte, 0.5 h, MM monolayer, 1 µM, 30 min, delta over DMSO 0.1%, read-out: CtAmp (%DD)): 118 ± 14.2%
- activity at 3 µM ([2]; Homo sapiens, Cardiomyocyte, 0.5 h, MM monolayer, 3 µM, 30 min, delta over DMSO 0.1%, read-out: CtAmp (%DD)): 87 ± 5.3%
- change in the contractility parameters [2, 4]: No change

Compound: CN(CCOc1ccc(NS(C)(=O)=O)cc1)CCc1ccc(NS(C)(=O)=O)cc1 [Dofetilide]
- effect on APD90 ([1]; 10 nM, both 2D models): significantly prolonged
- Free Cmax [3]: 0.0027 µM

Compound: COC(=O)C1=C(C)NC(C)=C(C(=O)OC)C1c1ccccc1[N+](=O)[O-] [Nifedipine]
- effect on APD90 ([1]; 100 nM, 2D monolayers on fibronectin and Matrix Plus): shortened; also recorded: reduced
- effect on duration of contraction ([2]; 100 nM, 2D monolayers on fibronectin and Matrix Plus, positive control): shortened; also recorded: reduced

Compound: COCCOC(=O)C1=C(C)NC(C)=C(C(=O)OC(C)C)C1c1cccc([N+](=O)[O-])c1 (centres unmarked) [Nimodipine]
- Free Cmax [3]: 0.069 µM

Compound: NC(=Nc1ccc(OCCCCCOc2ccc(N=C(N)c3ccccc3)cc2)cc1)c1ccccc1 [PA-6]
- APD30 (%DD) [1, 5]: 108±3.6 %DD
- APD90 (%DD) [1, 5]: 104±1.1 %DD
- CL (%DD) [1, 5]: 101±0.8 %DD
- Trise (%DD) [1, 5]: 101±17.4 %DD
- APD30 (%DD) [1, 6]: 99±3 %DD
- APD90 (%DD) [1, 6]: 107±1.4 %DD
- CL (%DD) [1, 6]: 98±2.3 %DD
- Trise (%DD) [1, 6]: 70±6.1 %DD
- APD30 (%DD) [1, 7]: 105±2.4 %DD
- APD90 (%DD) [1, 7]: 111±0.8 %DD
- CL (%DD) [1, 7]: 101±2.5 %DD
- Trise (%DD) [1, 7]: 89±10.8 %DD
- APD30 (%DD) [1, 8]: 110±1.3 %DD
- APD90 (%DD) [1, 8]: 116±1.3 %DD
- CL (%DD) [1, 8]: 108±1.4 %DD
- Trise (%DD) [1, 8]: 128 ± 15.8 %DD
- APD30 (%DD) [1, 9]: 107±1.9 %DD
- APD90 (%DD) [1, 9]: 103±1.5 %DD
- CL (%DD) [1, 9]: 97±0.7 %DD
- Trise (%DD) [1, 9]: 119±25.1 %DD
- APD30 (%DD) [1, 10]: 105±1 %DD
- APD90 (%DD) [1, 10]: 111±2.2 %DD
- CL (%DD) [1, 10]: 100±0.5 %DD
- Trise (%DD) [1, 10]: 74±17.9 %DD
- APD30 (%DD) [1, 11]: 107±1.9 %DD
- APD90 (%DD) [1, 11]: 111±1 %DD
- CL (%DD) [1, 11]: 102±0.8 %DD
- Trise (%DD) [1, 11]: 96±12.7 %DD
- APD30 (%DD) [1, 12]: 107±1.5 %DD
- APD90 (%DD) [1, 12]: 111±1.7 %DD
- CL (%DD) [1, 12]: 108±2.4 %DD
- Trise (%DD) [1, 12]: 138±14.2 %DD
- effect on APD90 (in words) ([1]; both FM and MM monolayers, concentration not given): mild APD90 prolongation
- effect of selective Kir2.1 channel block ([1]; both experimental groups): lack of effect
- CtAmp (%DD) [2, 5]: 103±8.8 %DD
- CtD50 (%DD) [2, 5]: 104±1.7 %DD
- CtAmp (%DD) [2, 6]: 111±14.2 %DD
- CtD50 (%DD) [2, 6]: 105±1.8 %DD
- CtAmp (%DD) [2, 7]: 105±10.2 %DD
- CtD50 (%DD) [2, 7]: 106±2.1 %DD
- CtAmp (%DD) [2, 8]: 111 ± 8.1 %DD
- CtD50 (%DD) [2, 8]: 112±2.5 %DD
- CtAmp (%DD) [2, 9]: 127±13 %DD
- CtD50 (%DD) [2, 9]: 101±1.3 %DD
- CtAmp (%DD) [2, 10]: 99±11.2 %DD
- CtD50 (%DD) [2, 10]: 103±1.1 %DD
- CtAmp (%DD) [2, 11]: 135±22.2 %DD
- CtD50 (%DD) [2, 11]: 105±1.9 %DD
- CtAmp (%DD) [2, 12]: 114±9.8 %DD
- CtD50 (%DD) [2, 12]: 107±1.2 %DD

Compound: CC(=O)OCC[N+](C)(C)C [acetylcholine]
- effect on beating rate / spontaneous rate (in words) ([1]; both FM and MM, concentration not given): decrease
- changes in the APD ([1]; both groups (FM and MM)): < 10%
